The subject of this data set is monocrotaline-induced pulmonary hypertension. Put plainly: Monocrotaline-induced pulmonary hypertension in rats (haemodynamics, right heart hypertrophy, bleeding). It is filed as in vivo, rat. The settings on record: for bleeding complications in treated animals: bleeding with fatal outcome or need to euthanize; for effect on haemodynamics in the right heart and pulmonary circulation and right heart hypertrophy (in words): comparison of Example 1, enoxaparin and warfarin. The text has this: The monocrotaline-induced pulmonary hypertension in rats is a widely used animal model of pulmonary arterial hypertension. The pyrrolizidine alkaloid monocrotaline is metabolized after subcutaneous injection to toxic monocrotaline pyrrole in the liver and leads within a few days to endothelial damage and coagulation activation and thrombosis formation in the pulmonary circulation, followed by remodelling of the small pulmonary arteries (media hypertrophy, de-novo muscularization). A single subcutaneous injection is sufficient to induce pronounced pulmonary hypertension in rats within 4 weeks.
Male Sprague-Dawley rats are used for the model. On day 0, the animals receive a subcutaneous injection of monocrotaline 60 mg/kg. The treatment of the animals starts before the monocrotaline injection and extends over a period of at least 28 days. At the end of the study, the animals undergo haemodynamic investigations, and the arterial and central venous oxygen saturation is measured. The rats are initially anaesthetized with pentobarbital 60 mg/kg for the haemodynamic measurement. The animals are then tracheotomized and artificially ventilated (frequency: 60 breaths/min; inspiration to expiration ratio: 50:50; positive end-expiratory pressure: 1 cm H2O; tidal volume: 10 ml/kg body weight; FIO2: 0.5). The anaesthesia is maintained by isoflurane inhalation anaesthesia. The systemic blood pressure is measured in the left carotid artery by means of a Millar microtip catheter. A polyethylene catheter is advanced through the right jugular vein into the right ventricle for determining the right ventricular pressure. The cardiac output is measured by thermodilution. Following the haemodynamics, the heart is removed and the ratio of right to left ventricle including septum is determined.

For the compound `O=C(NC[C@H]1CN(c2ccc(N3CCOCC3=O)cc2)C(=O)O1)c1ccc(Cl)s1` [Example 1, 5-chloro-N-({(5S)-2-oxo-3-[4-(3-oxomorpholin-4-yl)phenyl]-1,3-oxazolidin-5-yl}methyl)thiophene-2-carboxamide], the “bleeding complications in treated animals” value (“bleeding complications” below) was “no bleedings”; the “effect on haemodynamics in the right heart and pulmonary circulation and right heart hypertrophy (in words)” value (“effect on haemodynamics” below) is reported as “better activity”. Moreover, under “Table 1, 3-9 mg/kg/d”, the RVEDP amounted to 4 mmHg and the dP/dtmax was 2715 mmHg/s. Under “Table 1, 3-9 mg/kg/d, at least 28 days treatment”, this compound showed an RVPmax of 55 mmHg. For the setting “Table 1, 3-9 mg/kg/d, cardiac output”, this compound returned a CO of 117 mL/min. Also, the “RV/(LV + S)” value (Table 1, 3-9 mg/kg/d, weight of right heart relative to left heart including septum) is 0.41. Under “Table 1, 10-30 mg/kg/d”, the CO came to 117 mL/min, the “RV/(LV + S)” value is 0.33, the RVEDP is 3 mmHg and the RVPmax is given as 44 mmHg. Besides, the dP/dtmax (Table 1, 10-30 mg/kg/d) is reported as 2244 mmHg/s. For the setting “Table 2, 10-30 mg/kg/d”, the CO worked out at 125 mL/min, the “RV/(LV + S)” value worked out at 0.38, the RVEDP worked out at 3 mmHg and the RVPmax was 57 mmHg. For the setting “Table 2, 10-30 mg/kg/d”, this compound showed a dP/dtmax of 3300 mmHg/s.

Take enoxaparin [reference compound]: the “bleeding complications” value is reported as “half of the animals”; the “effect on haemodynamics” value was “no effect”. Further, under “Table 2, 20 mg/kg/d”, the CO turned out to be 77 mL/min, the “RV/(LV + S)” value was 0.56, the RVEDP is 6 mmHg and the RVPmax is recorded as 85 mmHg. Also, the dP/dtmax (Table 2, 20 mg/kg/d) turned out to be 4644 mmHg/s.

For `CC(=O)CC(c1ccccc1)c1c(O)c2ccccc2oc1=O` (stereo not shown) [Warfarin, warfarin, reference compound], the “bleeding complications” value is given as “half of the animals”; the “effect on haemodynamics” value is “significantly smaller effect”. In addition, for the setting “Table 2, 0.1-0.2 mg/kg/d”, the CO is 100 mL/min, the “RV/(LV + S)” value was 0.46, the RVEDP amounted to 4 mmHg and the RVPmax came out at 64 mmHg. Further, under “Table 2, 0.1-0.2 mg/kg/d”, the dP/dtmax is reported as 4535 mmHg/s.

Values taken from patent publication US20100144728A1, “Oxazolidinone For The Treatment And Prophylaxis Of Pulmonary Hypertension” (Bayer Schering Pharma AG, priority 2007, published 2010).
